This note sets out measurements from publication PMC6271935, “Synthesis and Broad-Spectrum Antiviral Activity of Some Novel Benzo-Heterocyclic Amine Compounds” (Molecules, 2014).

Where “and” joins values, the source holds several entries; their conditions need not be identical. Equal values may be shown once. Where only a bound is given, the exact number is not on record here.

Series [1] concerns Huh7.5 cells. Description: Cytotoxicity in Huh7.5 cells (MTT). The class given is cell-based, human. The note with it: 96 h. The procedure:
The Huh7.5 cells (1 × 10^4 cells/well) were plated in 96-well plates. Six hours later the culture media was replaced with fresh medium containing the test compounds at various concentrations. Cytotoxicity was evaluated with the 3-(4,5-dimethylthiazol-2-yl)-2,5-diphenyltetrazolium bromide (MTT) assay after 96 h.
Huh7.5 cells were seeded at a density of 3 × 10^4 cells/cm^2. After 24 h of incubation, the cells were infected with an HCV viral stock (approximately 45 IU per cell) and simultaneously treated with Telaprevir, the test compounds, or the solvent control. The culture medium was removed 96 h after inoculation, and the total intracellular RNA and total intracellular proteins were extracted with a Qiagen Kit according to the manufacturer’s instructions. Intracellular HCV RNA was quantified using a one-step real time RT-PCR kit (Invitrogen). Cytotoxicity was tested by the MTT assay, and IC50 values were calculated by the Reed and Muench methods.

The subject of series [2] is Vero cells. Description: Cytotoxicity in Vero cells (CPE). The note with it: 48 h, Reed & Muench.
Experimental: (§1) The cytotoxicity of the compounds in MDCK, Vero and HepG2.2.15 cells was monitored via cytopathic effect (CPE) assays. The MDCK and Vero cells (2.5 × 10^4 /well) were plated in a 96-well plate. Following a 24 h hold period, the monolayer of cells was incubated in the presence of various concentrations of the test compounds. […] The TC50 value was calculated using Reed & Muench analysis.
The test system of series [3] is Influenza A/hanfang/359/95. Description: microbe, parasite or virus in culture. The note with it: Influenza A virus, MDCK. Format: cell-based.
In series [4] the test system is HepG2.2.15 cells. Description: Cytotoxicity in HepG2.2.15 cells (CPE). Format: cell-based, human. Particulars: 3 + 3 days. Here is the method:
Cells were cultured for 3 days at 37 °C in a 5% CO2 atmosphere in an incubator, and the medium was replaced with fresh medium containing the test compounds for an additional 3 days. The cells were subsequently monitored by CPE and the TC50 value was calculated using Reed and Muench analysis.

Series [5] relates to HBV. Description: Anti-HBV assay in HepG2.2.15 cells, viral DNA by real time PCR. Format: cell-based, Hepatitis B virus. The note with it: for IC50: Hepatitis B virus, HepG2.2.15, 144 h, intracellular viral DNA, 3 + 3 days. The procedure:
The synthesized target compounds were assayed for their broad spectrum antiviral activity towards influenza A, HBV, HCV and Cox B3 virus in vitro. […] The inhibitory activities towards HBV and HCV were tested by real time PCR, and lamivudine (3TC) and teleprevir were used as positive controls, respectively.
The anti-HBV activities of test compounds and a positive control drug were tested in HepG2.2.15 cells. The HepG2.2.15 cells were cultured in 96-well plates and treated with the test compounds at 37 °C for 3 days. The medium was removed, and fresh medium containing the test compounds was added for an additional 3 days. The cells were harvested and intracellular DNA was extracted. The inhibition of viral DNA replication in treated cells versus untreated cells was determined by real time PCR.
In general terms: In qPCR the cycle at which signal appears reflects the starting amount.

The test system of series [6] is HCV. Description: Anti-HCV assay in Huh7.5 cells, intracellular HCV RNA by real time RT-PCR. Format: cell-based. The note with it: Hepatitis C virus, 96 h.
The subject of series [7] is MDCK cells. Description: Cytotoxicity in MDCK cells (CPE). The class given is cell-based, Canine. The note with it: 48 h, Reed & Muench.
Experimental: as §1
The test system of series [8] is Cox B3. Nature of the series: organism not typed. The note with it: Vero. The class given is cell-based, Coxsackie viruses (Cox B3 Nancy strain).
Series [9] concerns influenza A, HCV, Cox B3 virus and HBV. Description: Broad-spectrum antiviral panel (summary over all four antiviral assays). The class given is cell-based. Particulars: range/approximate value over influenza A, read-out: IC50 over the entire virus panel.

With `O=[N+]([O-])c1ccc(CNc2ccc3ncoc3c2)cc1` [2b, Benzooxazol-6-yl-(4-nitrobenzyl)-amine], the melting point – broadly, the temperature, or range, at which the solid turns liquid – was 154 to 156 °C. Moreover, in [1], the “TC50 (50% cytotoxic concentration), HCV” value is greater than 200 µM. In addition, the “TC50 (50% cytotoxic concentration), Cox B3” value in series [2] was 257.52 µM. Also, 41.3 µM corresponded to half-maximal inhibition in [3] (IC50). For the same compound, in series [4], the “TC50 (50% cytotoxic concentration), HBV” value worked out at 16.67 µM. In addition, in [5], the IC50 (usually the concentration that gives 50% inhibition) is greater than 5.56 µM. Besides, the 50% inhibitory concentration (IC50) in [6] was greater than 66.7 µM. Moreover, the “TC50 (50% cytotoxic concentration), Influenza A/hanfang/359/95” value in series [7] is 288.23 µM. Further, half-maximal inhibition in series [8] (IC50) required 31.3 µM.

The compound `C(=C\c1ccccc1)/CNc1ccc2ncoc2c1` [2c, (E)-Benzooxazol-6-yl-(3-phenylallyl)-amine] registered a melting point of 100 to 103 °C. The “TC50 (50% cytotoxic concentration), HCV” value in [1] was found to be 105.44 µM. Moreover, the “TC50 (50% cytotoxic concentration), Cox B3” value in series [2] was found to be 103.36 µM. Further, the half-maximal inhibitory concentration (IC50) in series [3] amounted to 11.6 µM. The “TC50 (50% cytotoxic concentration), HBV” value in series [4] stood at 28.87 µM. In series [5], the IC50 was greater than 16.7 µM. Further, the concentration for half-maximal inhibition (IC50) in series [6] came out at 10.5 µM. The “TC50 (50% cytotoxic concentration), Influenza A/hanfang/359/95” value in series [7] worked out at 133.16 µM. Besides, the midpoint of inhibition in series [8], the IC50, lay at 1.24 µM.

On to `Clc1ccc(CNc2ccc3ncoc3c2)s1` [2e, Benzooxazol-6-yl-(5-chlorothiophen-2-ylmethyl)-amine], for which the melting point lay in the range of 100 to 102 °C. Besides, the “TC50 (50% cytotoxic concentration), HCV” value in series [1] came to 45.78 µM. The “TC50 (50% cytotoxic concentration), Cox B3” value in series [2] was 29.08 µM. In series [3], this compound showed an IC50 of 11 µM. For the same compound, the “TC50 (50% cytotoxic concentration), HBV” value in series [4] is 19.25 µM. Further, the concentration for half-maximal inhibition (IC50) in [5] was greater than 11.1 µM. For the same compound, the half-maximal inhibitory concentration (IC50) in series [6] came to 17.7 µM. Moreover, the “TC50 (50% cytotoxic concentration), Influenza A/hanfang/359/95” value in series [7] is 87.30 µM. This compound also had a half-inhibitory concentration (IC50) in series [8] of 3.55 µM.

Compound `COc1cc(CNc2ccc3ncsc3c2)cc(Br)c1O` [3a, 4-(Benzothiazol-6-ylaminomethyl)-2-bromo-6-methoxyphenol] registered a melting point of 193 to 195 °C. In series [1], the “TC50 (50% cytotoxic concentration), HCV” value came out at 108.82 µM. Also, the “TC50 (50% cytotoxic concentration), Cox B3” value in [2] was 21.08 µM. Besides, the 50% inhibitory concentration (IC50) in series [3] was greater than 10.1 µM. In series [4], the “TC50 (50% cytotoxic concentration), HBV” value was determined as 28.87 µM. Moreover, the IC50 in series [5] was greater than 16.7 µM. This compound also returned an IC50 in [6] of 49 µM. Besides, the “TC50 (50% cytotoxic concentration), Influenza A/hanfang/359/95” value in series [7] was 21.08 µM. The concentration for half-maximal inhibition (IC50) in [8] was 10.1 µM.

Take `COc1cccc(CNc2ccc3ncsc3c2)c1O` [3b, 2-(Benzothiazol-6-ylaminomethyl)-6-methoxyphenol]: the melting point was 206 to 208 °C. Moreover, the “TC50 (50% cytotoxic concentration), HCV” value in [1] was determined as 126.59 µM. Further, the “TC50 (50% cytotoxic concentration), Cox B3” value in series [2] amounted to 67.23 µM. For the same compound, inhibition in series [3] was half-maximal at 10 µM (IC50). In addition, in [4], the “TC50 (50% cytotoxic concentration), HBV” value turned out to be 57.74 µM. For the same compound, the concentration for half-maximal inhibition (IC50) in series [5] was greater than 33.3 µM. For the same compound, the half-inhibitory concentration (IC50) in series [6] is 38 µM. In series [7], the “TC50 (50% cytotoxic concentration), Influenza A/hanfang/359/95” value was 55.95 µM. In addition, in [8], the IC50 came out at 5.66 µM.

`C(=C\c1ccccc1)/CNc1ccc2ncsc2c1` [3e, (E)-benzothiazol-6-yl-(3-phenyl-allyl)-amine]: the melting point was in the range of 99 to 101 °C. Moreover, in series [1], the “TC50 (50% cytotoxic concentration), HCV” value was 43.58 µM. Also, the “TC50 (50% cytotoxic concentration), Cox B3” value in series [2] stood at 20.05 µM. The compound further yielded a half-inhibitory concentration (IC50) in series [3] of 8.6 µM. For the same compound, the “TC50 (50% cytotoxic concentration), HBV” value in [4] was determined as 9.62 µM. In series [5], the “anti-HBV activity (in words)” value is “did not exhibit any activity” and the IC50 is greater than 5.56 µM. This compound also returned an IC50 in series [6] of 9.75 µM. The “TC50 (50% cytotoxic concentration), Influenza A/hanfang/359/95” value in series [7] stood at 24.10 µM. Further, the 50% inhibitory concentration (IC50) in series [8] was found to be 1.16 µM.

In turn, `COc1ccccc1/C=C/CNc1ccc2ncsc2c1` [3f, (E)-benzothiazol-6-yl-[3-(2-methoxy-phenyl)-allyl]-amine] displayed a melting point of 107 to 109 °C. For the same compound, in series [1], the “TC50 (50% cytotoxic concentration), HCV” value was 54.99 µM. For the same compound, in series [2], the “TC50 (50% cytotoxic concentration), Cox B3” value came out at 12.48 µM. The IC50 in series [9] was 3.21 to 5.06 µM and ~5 µM. The IC50 in series [3] is 4.15 µM. In series [4], the “TC50 (50% cytotoxic concentration), HBV” value is 28.87 µM. Besides, the IC50 in [5] came to 5.06 µM. In series [6], this compound had an IC50 of 5.04 µM. Also, the “TC50 (50% cytotoxic concentration), Influenza A/hanfang/359/95” value in [7] came out at 21.66 µM. Moreover, half-maximal inhibition in series [8] (IC50) was put at 3.21 µM.

`Cc1ccc(CNc2ccc3ncsc3c2)o1` [3g, Benzothiazol-6-yl-(5-methylfuran-2-ylmethyl)-amine]: the melting point was 52 to 54 °C. Also, the “TC50 (50% cytotoxic concentration), HCV” value in series [1] stood at 138.38 µM. In addition, in series [2], the “TC50 (50% cytotoxic concentration), Cox B3” value was 65.57 µM. Also, in [9], the IC50 lay within 0.71 to 34.9 µM. Besides, the IC50 in series [3] worked out at 26.2 µM. Further, in series [4], the “TC50 (50% cytotoxic concentration), HBV” value turned out to be 21.48 µM. Also, the IC50 in [5] was 0.7 µM. In addition, half-maximal inhibition in [6] (IC50) required 34.9 µM. Moreover, in series [7], the “TC50 (50% cytotoxic concentration), Influenza A/hanfang/359/95” value was found to be 94.60 µM. Besides, the 50% inhibitory concentration (IC50) in [8] is 5.03 µM.

With `Clc1ccc(CNc2ccc3ncsc3c2)s1` [3i, Benzothiazol-6-yl-(5-chlorothiophen-2-ylmethyl)-amine], the melting point fell in the range of 104 to 106 °C. The “TC50 (50% cytotoxic concentration), HCV” value in series [1] amounted to 38.24 µM. In addition, the “TC50 (50% cytotoxic concentration), Cox B3” value in series [2] came to 13.18 µM. In addition, the IC50 in series [3] stood at 3.42 µM. Moreover, in series [4], the “TC50 (50% cytotoxic concentration), HBV” value was determined as 9.62 µM. Moreover, in series [5], the IC50 was greater than 5.56 µM. The IC50 in [6] came out at 9.81 µM. Moreover, the “TC50 (50% cytotoxic concentration), Influenza A/hanfang/359/95” value in series [7] was determined as 27.42 µM. Moreover, the half-inhibitory concentration (IC50) in series [8] turned out to be 2.53 µM.

Compound `c1ncc(CNc2ccc3ncsc3c2)cn1` [3j, Benzothiazol-6-yl-pyrimidin-5-ylmethyl-amine] registered a melting point of 127 to 129 °C. Besides, in series [1], the “TC50 (50% cytotoxic concentration), HCV” value was greater than 200 µM. The “TC50 (50% cytotoxic concentration), Cox B3” value in series [2] amounted to 826.44 µM. Also, the IC50 in [3] was 214 µM. Moreover, in series [4], the “TC50 (50% cytotoxic concentration), HBV” value came to 28.87 µM. Further, the half-inhibitory concentration (IC50) in [5] is greater than 16.7 µM. This compound also showed an IC50 in series [6] greater than 66.7 µM. Besides, the “TC50 (50% cytotoxic concentration), Influenza A/hanfang/359/95” value in series [7] came to 826.44 µM. Besides, the IC50 in [8] came out at 53 µM.

`Cc1ccc(CNc2ccc3nc[nH]c3c2)o1` [4b, (3H-Benzoimidazol-5-yl)-(5-methyl-furan-2-ylmethyl)-amine] returned a melting point of 75 to 77 °C. The “TC50 (50% cytotoxic concentration), HCV” value in series [1] was greater than 200 µM. The “TC50 (50% cytotoxic concentration), Cox B3” value in series [2] is 254.07 µM. In addition, the 50% inhibitory concentration (IC50) in series [3] was found to be 21.4 µM. Moreover, the “TC50 (50% cytotoxic concentration), HBV” value in series [4] was greater than 50 µM. In addition, in series [5], the “anti-HBV activity (in words)” value is on record as “complete loss of antiviral activity” and the IC50 was greater than 50 µM. The compound further showed a half-inhibitory concentration (IC50) in [6] of 24.4 µM. Moreover, the “TC50 (50% cytotoxic concentration), Influenza A/hanfang/359/95” value in series [7] stood at 440.02 µM. Also, the midpoint of inhibition in series [8], the IC50, lay at 48.9 µM.
